Four compounds from publication PMC7403315, “Cyclic peptide FXII inhibitor provides safe anticoagulation in a thrombosis model and in artificial lungs” (Nature Communications, 2020) can be followed below.

One experiment has as its target T1, Mouse α-FXIIa (Mus musculus, UniProt Q80YC5).
T1 construct: Mouse α-FXIIa; purchased Molecular Innovations MFXIIA
T1 sequence (Q80YC5 355-597 limits assumed): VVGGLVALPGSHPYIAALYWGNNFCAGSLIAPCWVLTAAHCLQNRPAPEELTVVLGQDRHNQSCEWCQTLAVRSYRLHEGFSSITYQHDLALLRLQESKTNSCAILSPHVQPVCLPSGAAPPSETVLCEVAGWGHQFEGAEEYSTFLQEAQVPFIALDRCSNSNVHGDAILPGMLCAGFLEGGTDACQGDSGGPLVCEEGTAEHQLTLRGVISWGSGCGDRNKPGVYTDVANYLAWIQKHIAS
T1 sequence (Q80YC5 20-354 limits assumed): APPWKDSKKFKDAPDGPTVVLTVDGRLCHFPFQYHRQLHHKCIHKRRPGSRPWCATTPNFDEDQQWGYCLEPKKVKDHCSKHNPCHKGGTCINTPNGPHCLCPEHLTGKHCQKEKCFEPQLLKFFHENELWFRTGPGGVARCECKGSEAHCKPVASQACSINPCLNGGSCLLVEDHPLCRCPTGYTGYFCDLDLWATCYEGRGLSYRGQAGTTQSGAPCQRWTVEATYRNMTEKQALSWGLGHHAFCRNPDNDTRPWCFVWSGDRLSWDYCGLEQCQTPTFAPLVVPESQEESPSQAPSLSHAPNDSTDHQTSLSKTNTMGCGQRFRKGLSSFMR
In words: FXIIa protease inhibition assay with fluorogenic substrate Boc-Gln-Gly-Arg-AMC. The following applies: purified peptide without coumarin label; read-out: Ki mouse FXIIa. Format: biochemical. Here is the method:
(§1) In order to test the inhibitory activity of peptides without prior purification, we developed the following method. […] After solid-phase peptide synthesis, cleavage, and ether precipitation, the peptides were chemically cyclized and their Ki values were determined in a FXIIa activity assay using a fluorogenic substrate.
(§2) Protease inhibition assays
(§3) The inhibitory activity of peptides was determined by measuring the residual protease activity with a fluorogenic substrate. The assay was performed in buffer containing 10 mM Tris-Cl, pH […]
(§4) 1% (v/v) DMSO in a volume of 150 µl. FXIIa activity was measured with the fluorogenic substrate Boc-Gln-Gly-Arg-AMC (Bachem) at a final concentration of 50 µM. Mouse α-FXIIa (Molecular Innovations cat # MFXIIA) and human β-FXIIa (Molecular Innovations cat # HFXIIAB) were used at final concentrations of 0.4 nM. The reaction was pipetted as follows: 50 µl of bicyclic peptide in assay buffer were added to 50 µl of FXIIa in assay buffer and incubated for 10 minutes at 25°C before 50 µl of 150 µM fluorogenic substrate in assay buffer were added to measure the residual protease activity with an Infinite M200Pro fluorescence plate reader (excitation at 368 nm, emission at 467 nm; Tecan) for a period of 30 minutes with a read every minute at 25°C. The Tecan software i-control (version 1.1) was used for data analysis. Stock solutions of 1 mM bicyclic peptide were prepared by either dissolving the unpurified cyclization reaction with water or by dissolving purified and lyophilized peptide in water. The bicyclic peptides were serially diluted two-fold using assay buffer. Sigmoidal curves were fitted to the data using the following dose response equation (1), wherein x = peptide concentration, y = % protease activity, and p = Hill slope. IC50 values were derived from the fitted curve.
(§5) The inhibition constants (Ki) were calculated according to the equation of Cheng and Prusoff, Ki = IC50/(1+([S]0/Km), wherein IC50 is the functional strength of the inhibitor, [S]0 is the total substrate concentration, and Km is the Michaelis-Menten constant. […]
(§6) the substrate Boc-Gln-Gly-Arg-AMC. […]

A further experiment deals with T2, human β-FXIIa (Homo sapiens, UniProt P00748).
T2 construct: human β-FXIIa (Molecular Innovations cat #); purchased Molecular Innovations HFXIIAB; host or cells: human blood
The description is as above. The class given is biochemical. To be noted: for Ki: purified peptide without coumarin label, read-out: Ki human FXIIa. The protocol:
as §1, §2, §3, §4, §5, §6

Molecules are shown by their SMILES. Values joined by “and” are separate entries in the source; they are usually repeats but may differ in a detail not shown here. Identical values can stand only once. Starred links: 1 amine or outer side, 2 acyl side, 3 side chain; linkers in the order of their positions; H or OH if unused. Positions of bridges follow the written chain, without caps; N, C: chain ends. Non-standard residues stand in square brackets, D forms with d. Residues, ends and D or L forms follow the SMILES beside them. TATA = O=C(CC[*:1])N1CN(C(=O)CC[*:2])CN(C(=O)CC[*:3])C1; Phe(4-F) = N[C@@H](Cc1ccc(F)cc1)C(=O)O; β3hR = N=C(N)NCCC[C@H](N)CC(=O)O

T2 sequence (P00748 373-615 limits assumed, other chains not shown): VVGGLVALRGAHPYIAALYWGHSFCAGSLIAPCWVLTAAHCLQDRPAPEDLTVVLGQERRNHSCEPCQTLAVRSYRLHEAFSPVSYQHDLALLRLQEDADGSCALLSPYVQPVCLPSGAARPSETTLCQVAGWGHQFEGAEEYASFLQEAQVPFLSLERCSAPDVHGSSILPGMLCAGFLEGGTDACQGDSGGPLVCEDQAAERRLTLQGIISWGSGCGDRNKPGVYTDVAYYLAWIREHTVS

Turning to `CC(C)C[C@@H]1NC(=O)[C@H](CCC(N)=O)NC(=O)[C@H](Cc2c[nH]cn2)NC(=O)[C@@H]2CSCCC(=O)N3CN(CN(C3)C(=O)CCSC[C@H](NC(=O)[C@@H](CO)NC(=O)[C@H](N)CCCNC(=N)N)C(=O)N[C@@H](Cc3ccc(F)cc3)C(=O)N[C@@H](CCCNC(=N)N)C(=O)N[C@@H](CC(C)C)C(=O)N3CCC[C@H]3C(=O)N2)C(=O)CCSC[C@@H](C(=O)N[C@@H](CCCNC(=N)N)C(N)=O)NC(=O)[C@H](CCCNC(=N)N)NC1=O` [Arg11βhArg reverted] (HELM PEPTIDE1{[dR].[dS].C.[O=C([C@H](Cc1ccc(F)cc1)N[*:1])[*:2]].R.L.P.C.H.Q.L.R.C.R.[am]}|CHEM1{[O=C(CC[*:1])N1CN(C(=O)CC[*:2])CN(C(=O)CC[*:3])C1]}$PEPTIDE1,CHEM1,3:R3-1:R1|PEPTIDE1,CHEM1,8:R3-1:R2|PEPTIDE1,CHEM1,13:R3-1:R3$$$V2.0), the Ki on Mouse α-FXIIa stood at 0.9 ± 0.4 nM; on human β-FXIIa, 0.51 ± 0.1 nM.
As to `CC(C)C[C@@H]1NC(=O)[C@H](CCC(N)=O)NC(=O)[C@H](Cc2c[nH]cn2)NC(=O)[C@@H]2CSCCC(=O)N3CN(CN(C3)C(=O)CCSC[C@H](NC(=O)[C@@H](N)CCCNC(=N)N)C(=O)N[C@@H](Cc3ccccc3)C(=O)N[C@@H](CCCNC(=N)N)C(=O)N[C@@H](CC(C)C)C(=O)N3CCC[C@H]3C(=O)N2)C(=O)CCSC[C@@H](C(=O)N[C@@H](CCCNC(=N)N)C(N)=O)NC(=O)[C@H](CCCNC(=N)N)NC1=O` [FXII851] (HELM PEPTIDE1{R.C.F.R.L.P.C.H.Q.L.R.C.R.[am]}|CHEM1{[O=C(CC[*:1])N1CN(C(=O)CC[*:2])CN(C(=O)CC[*:3])C1]}$PEPTIDE1,CHEM1,2:R3-1:R1|PEPTIDE1,CHEM1,7:R3-1:R2|PEPTIDE1,CHEM1,12:R3-1:R3$$$V2.0), the Ki at Mouse α-FXIIa amounted to 36 nM; on human β-FXIIa, 6.5 nM. Further, the “Residual activity of human FXIIa” value on human β-FXIIa (inhibitor 0.390625 nM, 0.000390625 µM) is listed as 96.2983%; at human β-FXIIa (inhibitor 0.78125 nM, 0.00078125 µM), 91.5155%; at human β-FXIIa (inhibitor 1.5625 nM, 0.0015625 µM), 83.5319%; on human β-FXIIa (inhibitor 3.125 nM, 0.003125 µM), 70.2169%; on human β-FXIIa (inhibitor 6.25 nM, 0.00625 µM) it was 54.9417%; on human β-FXIIa (inhibitor 12.5 nM, 0.0125 µM), 37.7877%. The “Residual activity of human FXIIa” value on human β-FXIIa (inhibitor 25 nM, […]) was 23.2045%; at human β-FXIIa (inhibitor 50 nM, 0.05 µM), 12.5321%; on human β-FXIIa (inhibitor 100 nM, 0.1 µM), 6.25%; on human β-FXIIa (inhibitor 200 nM, 0.2 µM), 1.167% and 2.638%; at human β-FXIIa (inhibitor 400 nM, 0.4 µM) it was 1.099%. Also, at human β-FXIIa (inhibitor 0.390625 nM, read-out: Residual activity of human FXIIa), the remaining activity at 0.000390625 µM is 93.8%. Also, the remaining activity at 0.00078125 µM at human β-FXIIa (inhibitor 0.78125 nM, read-out: Residual activity of human FXIIa) was 90.5%. For the same compound, at human β-FXIIa (inhibitor 1.5625 nM, read-out: Residual activity of human FXIIa), the remaining activity at 0.0015625 µM was determined as 84.1%. Moreover, the remaining activity at 0.003125 µM on human β-FXIIa (inhibitor 3.125 nM, read-out: Residual activity of human FXIIa) worked out at 72.3%. Moreover, the remaining activity at 0.00625 µM on human β-FXIIa (inhibitor 6.25 nM, read-out: Residual activity of human FXIIa) is 56.8%. The remaining activity at 0.0125 µM at human β-FXIIa (inhibitor 12.5 nM, read-out: Residual activity of human FXIIa) came out at 38.2%. Besides, the remaining activity at […] at human β-FXIIa (inhibitor 25 nM, read-out: Residual activity of human FXIIa) stood at 25%. Also, the remaining activity at 0.05 µM at human β-FXIIa (inhibitor 50 nM, read-out: Residual activity of human FXIIa) came out at 14.1%. For the same compound, the remaining activity at 0.1 µM on human β-FXIIa (inhibitor 100 nM, read-out: Residual activity of human FXIIa) worked out at 6.97%. The remaining activity at 0.4 µM at human β-FXIIa (inhibitor 400 nM, read-out: Residual activity of human FXIIa) is 1.94%.
Consider `CC(C)C[C@@H]1NC(=O)[C@H](CCC(N)=O)NC(=O)[C@H](Cc2c[nH]cn2)NC(=O)[C@@H]2CSCCC(=O)N3CN(CN(C3)C(=O)CCSC[C@H](NC(=O)[C@@H](CO)NC(=O)[C@H](N)CCCNC(=N)N)C(=O)N[C@@H](Cc3ccc(F)cc3)C(=O)N[C@@H](CCCNC(=N)N)C(=O)N[C@@H](CC(C)C)C(=O)N3CCC[C@H]3C(=O)N2)C(=O)CCSC[C@@H](C(=O)N[C@@H](CCCNC(=N)N)C(N)=O)NC(=O)C[C@H](CCCNC(=N)N)NC1=O` [FXII900 (with C-term Arg)] (H-[dR][dS]C[Phe(4-F)]RLPCHQL[β3hR]CR-NH2; linker 3-8-13 via TATA), for which the inhibition constant Ki at Mouse α-FXIIa worked out at 0.5 ± 0.15 nM; on human β-FXIIa, 0.34 ± 0.03 nM.
For `CC(C)C[C@@H]1NC(=O)[C@H](CCC(N)=O)NC(=O)[C@H](Cc2c[nH]cn2)NC(=O)[C@@H]2CSCCC(=O)N3CN(CN(C3)C(=O)CCSC[C@H](NC(=O)[C@@H](CO)NC(=O)[C@H](N)CCCNC(=N)N)C(=O)N[C@@H](Cc3ccccc3)C(=O)N[C@@H](CCCNC(=N)N)C(=O)N[C@@H](CC(C)C)C(=O)N3CCC[C@H]3C(=O)N2)C(=O)CCSC[C@@H](C(=O)N[C@@H](CCCNC(=N)N)C(N)=O)NC(=O)C[C@H](CCCNC(=N)N)NC1=O` [Phe3Phe4F reverted] (HELM PEPTIDE1{[dR].[dS].C.F.R.L.P.C.H.Q.L.[N=C(N)NCCC[C@@H](CC(=O)[*:2])N[*:1]].C.R.[am]}|CHEM1{[O=C(CC[*:1])N1CN(C(=O)CC[*:2])CN(C(=O)CC[*:3])C1]}$PEPTIDE1,CHEM1,3:R3-1:R1|PEPTIDE1,CHEM1,8:R3-1:R2|PEPTIDE1,CHEM1,13:R3-1:R3$$$V2.0) the same measures were 1.9 ± 0.5 nM and 0.7 ± 0.06 nM.
